Laboratory results from US20210147455A1 (SHAANXI SYNTHETIC PHARMACEUTICAL CO., LTD., priority 2018, published 2021).
“And” between values parts separate entries of the source, which are not always exact repeats. Identical values can stand only once.

Assays:
[1] = Stability experiments under 40° C.±2° C. and 75% R.H±5% R.H (accelerated test); format: physicochemical; details: 40° C./75% R.H
[2] = Stability experiments under 25° C.±2° C. and 65% R.H±5% R.H; details: 25° C./65% R.H
Excerpt: • 1. […] The results are shown in detail in the following table.

[3] = Hygroscopicity study (Chinese Pharmacopoeia 2015, 9103); format: physicochemical; details: for Hygroscopic weight gain: 25° C.±1° C., saturated ammonium chloride solution, 24 hours; for Conclusion (hygroscopicity): after 24 hours
Method: Test method: • 1. A dried glass weighing bottle with stopper (having an outer diameter of 50 mm and a height of 15 mm) was placed in a thermostatic drier (a saturated ammonium chloride solution was placed on the lower part of the thermostatic drier) at an appropriate temperature of 25° C.±1° C. on the day earlier before the test, and the weight (m1) of weighing bottle was precisely weighed. • 2. An appropriate amount of test sample was taken and spread in the weighing bottle, and the thickness of the test sample was controlled to about 1 mm, and the weight (m2) was precisely weighed. • 3. The weighing bottle was opened and was placed, together with the bottle cap, under the above mentioned constant temperature and humidity condition for 24 hours. • 4. The weighing bottle was capped and precisely weighed to obtain the weight (m3).
Description of hygroscopicity characterization and delimitation of hygroscopicity weight gain: Deliquescence: enough moisture is absorbed to form a liquid. […] Slightly hygroscopic: hygroscopic weight gain is less than 2% but not less than 0.2%. Not or hardly hygroscopic: hygroscopic weight gain is less than 0.2%.

[4] = month 3, Phosphate Monopotassium Salt
[5] = month 6, Phosphate Monopotassium Salt
[6] = month 9, Phosphate Monopotassium Salt
[7] = month 12, Phosphate Monopotassium Salt
[8] = month 24, Phosphate Monopotassium Salt

Substance | Content ([1]; month 0) | Description ([1]; month 0) | Related substance ([1]; month 0) | Content ([1]; month 1) | Description ([1]; month 1) | Related substance ([1]; month 1) | Content ([1]; month 2) | Description ([1]; month 2) | Related substance ([1]; month 2) | Content ([1]; month 3) | Description ([1]; month 3) | Related substance ([1]; month 3) | Content ([1]; month 6) | Description ([1]; month 6) | Related substance ([1]; month 6) | Content ([2]; month 0) | Description ([2]; month 0) | Related substance ([2]; month 0) | Description ([2]; month 3) | Description ([2]; month 6) | also measured
Posaconazole Phosphate Monopotassium Salt Trihydrate [Comparative Example 6] | 99.87% | White | 0.13% | 99.76% | White | 0.24% | 99.65% | White | 0.35% | 99.49% | White | 0.51% | 99.38% | White | 0.62% | 99.87% | White | 0.13% | White | White | Content ([2]; month 3): 99.78%; Related substance ([2]; month 3): 0.22%; Content ([2]; month 6): 99.70%; Related substance ([2]; month 6): 0.30%; Content ([2]; month 9): 99.59%; Description ([2]; month 9): White; Related substance ([2]; month 9): 0.41%; Content ([2]; month 12): 99.48%; Description ([2]; month 12): White; Related substance ([2]; month 12): 0.52%; Content ([2]; month 24): 99.00%; Description ([2]; month 24): White; Related substance ([2]; month 24): 1.00%; Hygroscopic weight gain [3]: 1.95%; Conclusion (hygroscopicity) [3]: Slight hygroscopicity
Posaconazole Phosphate Monopotassium Salt [Comparative Example 3] | 99.87% | White | 0.13% | 99.75% | White | 0.25% | 99.64% | White | 0.36% | 99.51% | White | 0.49% | 99.38% | White | 0.62% | 99.87% | White | 0.13% | White | White | Content [2, 4]: 99.73% and 99.80%; Related substance [2, 4]: 0.27% and 0.20%; Content [2, 5]: 99.67% and 99.68%; Related substance [2, 5]: 0.37% and 0.32%; Description ([2]; month 9): White; Content [2, 6]: 99.55% and 99.59%; Related substance [2, 6]: 0.45% and 0.41%; Description ([2]; month 12): White; Content [2, 7]: 99.41% and 99.48%; Related substance [2, 7]: 0.59% and 0.52%; Description ([2]; month 24): White; Content [2, 8]: 98.88% and 99.03%; Related substance [2, 8]: 1.12% and 0.97%; Hygroscopic weight gain [3]: 1.56%; Conclusion (hygroscopicity) [3]: Slight hygroscopicity
Posaconazole Phosphate Monosodium Salt Trihydrate [Comparative Example 7] | 99.87% | White | 0.13% | 99.77% | White | 0.23% | 99.63% | White | 0.37% | 99.50% | White | 0.50% | 99.37% | White | 0.63% | 99.87% | White | 0.18% | White | White | Content ([2]; month 3): 99.78%; Related substance ([2]; month 3): 0.22%; Content ([2]; month 6): 99.71%; Related substance ([2]; month 6): 0.29%; Content ([2]; month 9): 99.61%; Description ([2]; month 9): White; Related substance ([2]; month 9): 0.39%; Content ([2]; month 12): 99.51%; Description ([2]; month 12): White; Related substance ([2]; month 12): 0.49%; Content ([2]; month 24): 98.98%; Description ([2]; month 24): White; Related substance ([2]; month 24): 1.02%; Hygroscopic weight gain [3]: 1.86%; Conclusion (hygroscopicity) [3]: Slight hygroscopicity
